System: pre-implantation mouse embryos
Experiment: Inhibition of glycolysis, phasor-FLIM of NADH lifetime in embryos
Assay type: cell-based
Conditions: 1 mM, early blastocyst stage embryos; g value vs control p-value=3.88E-09
Procedure: Embryos were placed in 25 μl microdroplets of KSOMaa (Invitrogen) with the appropriate inhibitors covered in mineral oil (Sigma). Both of the two chemical inhibitors, rotenone and antimycin A cocktail (R&A) and 2-Deoxyglucose (2DeoxyG) were dissolved in KSOMaa. For R&A, the inhibitor was prepared to perform dose dependence measurements for a final concentration of 100 nM and 500 nM. For 2DeoxyG, the inhibitor has a final concentration of 1 mM. KSOMaa was used as a solvent and culture media for the control group and treatment group embryos.
Fluorescence lifetime images of the pre-implantation embryos were acquired on Zeiss LSM710 (Carl Zeiss, Jena, Germany), a multi-photon microscope coupled with a Ti: Sapphire laser (Spectra-Physics Mai Tai, Mountain View, CA) with 80 MHz repetition rate. […] A dichroic filter at 690 nm was used to separate the fluorescence signal from the laser light. And the emission signal was split with 496 nm LP filter and detected in two channels using a band pass filter 460/80 and a 540/50 filter. […] FLIM calibration of the system was performed by measuring the known lifetime of a fluorophore coumarin 6 (dissolved in ethanol), which has a known fluorescence lifetime of T=2.5 ns(37, 38). […] FLIM data were acquired and processed by the SimFCS software developed at the Laboratory of Fluorescence Dynamics (LFD). […]

## O=CC[C@@H](O)[C@H](O)[C@H](O)CO [2DeoxyG, 2-Deoxy-D-Glucose]
  phasor-FLIM lifetime distribution (free/bound NADH) compared to controls: shifted the phasor-FLIM distribution to longer lifetime

From patent US11869191B2, “System and method for tissue viability screening” (THE REGENTS OF THE UNIVERSITY OF CALIFORNIA, priority 2019, dated 2024)
